pIC50: −log10 of the molar value. Where a name gives a salt, the structure may show the parent alone.
Assays:
PAR1 thrombin receptor = target: T1, PAR1 thrombin receptor (Homo sapiens, UniProt P25116); assay: Receptor binding assay ([3H] high affinity TRAP, platelet membrane); details: displacement of 25 nM [3H] high affinity TRAP from platelet membrane, 37° C., 1 hour; read-out: RBA IC50
T1 construct: centrifuged at 40,000 g for 60 minutes to yield platelet membrane; from tissue; host or cells: platelet membrane from donor blood
T1 sequence (P25116 22-425): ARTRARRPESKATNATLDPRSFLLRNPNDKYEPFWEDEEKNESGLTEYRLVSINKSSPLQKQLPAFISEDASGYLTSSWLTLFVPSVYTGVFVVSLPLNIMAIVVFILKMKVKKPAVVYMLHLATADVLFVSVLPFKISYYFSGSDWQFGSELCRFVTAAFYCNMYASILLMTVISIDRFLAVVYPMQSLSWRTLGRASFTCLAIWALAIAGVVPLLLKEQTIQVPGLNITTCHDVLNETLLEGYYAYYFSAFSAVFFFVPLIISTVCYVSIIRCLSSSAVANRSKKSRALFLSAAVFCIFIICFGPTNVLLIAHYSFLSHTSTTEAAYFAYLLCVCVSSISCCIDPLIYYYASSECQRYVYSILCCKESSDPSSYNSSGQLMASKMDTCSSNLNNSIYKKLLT
Protocol: Blood was sampled from a healthy adult who had taken no drugs for one week, and 3.8% citric acid (a ratio of 1:9 with respect to the blood) was added as an anticoagulant. The mixture was then centrifuged at 100 g for 10 minutes at room temperature to yield platelet rich plasma (PRP). The platelet precipitate obtained, by centrifuging the PRP was homogenized with a Dounce homogenizer, and then centrifuged at 40,000 g for 60 minutes to yield platelet membrane. The platelet membrane was suspended in a solution prepared by adding DMSO (dimethyl sulfoxide) at 1% concentration to Buffer 1: a 50 mM Tris-HCl buffer containing 10 mM MgCl2 and 1 mM EGTA (ethylene glycol tetraacetic acid), and the suspension was stored at −80° C. Bovine albumin and DMSO were added to Buffer 1 at 0.1% and 20%, respectively, to make a preparation solution for the test compound. […] Next, 30 μl of liquid scintillator was added for measurement of the radioactivity of the plate using a Top Counter (Packard), the value of the radioactivity in the presence of the test compound minus non-specific binding portion was divided by the specific binding value (the value of the binding in the absence of the compound minus the non-specific binding portion) to determine the binding ratio, from which the IC50 value was calculated. […]

[1] = system: platelet rich plasma (PRP), thrombin-induced platelet aggregation; assay: Inhibitory effects on platelet aggregation using platelet rich plasma (thrombin-induced); type: cell-based; details: Homo sapiens, 0.1 h, thrombin 0.5-1.5 units/ml, area under aggregation curve over 6 minutes, read-out: Thr IC50
Protocol: Blood was sampled from a healthy adult who had taken no drugs for one week, and 3.8% citric acid (a ratio of 1:9 with respect to the blood) was added as an anticoagulant. The mixture was then centrifuged at 100 g for 10 minutes at room temperature to yield platelet rich plasma (PRP). The PRP-removed blood was further centrifuged at 1000 g for 10 minutes to yield platelet poor plasma (PPP). The number of platelet was counted using a multi-parameter automatic hemocyte counter (K4500, Sysmex), and the PRP was diluted to approximately 300,000/μl with the PPP. The platelet aggregation activity was determined in the following manner using an Aggregometer (MC Medical). GPRP-NH2 (final concentration 1 mM, 25 μl) was added as a fibrin polymerization inhibitor to the PRP (175 μl), after which Ca-free Tyrode solution (control) or the test compound suspension (25 μl) at different concentrations was added, incubation was performed at 37° C. for 3 minutes and then 25 μl of thrombin at the minimum concentration required to produce maximum aggregation (final concentration: optimum concentration among 0.5-1.5 units/ml) was added, for initiation of platelet aggregation. […] After addition of thrombin, the aggregation reaction was examined for 6 minutes and the areas under the aggregation curves were compared to determine the inhibition ratio, from which the IC50 value was calculated.

[2] = system: Vascular smooth muscle cells (rSMC); assay: Rat smooth muscle cell proliferation assay (thrombin-stimulated, MTT); type: cell-based; details: 48 h, thrombin 0.1 unit/ml, 2 days, MTT OD 590 nm, read-out: Rat SMC IC50
Protocol: Vascular smooth muscle cells (rSMC) were isolated from male SD rat aorta by the explant method. DMEM medium (Sigma) containing 10% fetal bovine serum (GibcoBRL), streptomycin and penicillin was used as the proliferation medium, and subculture was carried out at 37° C. in the presence of 5% CO2. Culture was initiated after adding 100 μl of rSMC suspension in proliferation medium at a concentration of 1×10^4 cells/ml, to a 96-well plate. After 3 days, cells were rinsed twice with 100 μl of DMEM medium, the medium was exchanged with 100 μl of DMEM medium containing 0.1% albumin (starvation medium), and serum starvation was initiated. […]
Upon adding 20 μl of MTT (3-[4,5-dimethylthiazol-2-yl]-2,5-diphenyltetrazolium bromide) dissolved in DPBS to 7.5 mg/ml, incubation was continued for 4 hours. […] As an index of cell proliferation, the OD 590 nm was measured using a plate reader (EL340, BIO-TEK Instruments Inc.), and the control OD value (OD value in the absence of the test compound) minus the OD value in the presence of the test compound was divided by the control OD value minus the blank OD value (OD value without thrombin stimulation) to determine the inhibition ratio, from which the value was calculated.

**Q.** What does the source list for `CCCC1CN(CC(=O)c2cc(N(C)S(C)(=O)=O)c(O)c(C(C)(C)C)c2)C(=N)[C@@H]1c1ccccc1` (stereo in doubt) [Example 3, N-{3-tert-Butyl-2-hydroxy-5-[2-((3S,4S)-2-imino-3-phenyl-4-propyl-pyrrolidin-1-yl)-acetyl]-phenyl}-N-methyl-methanesulfonamide hydrobromide]?
**A.** pIC50 (PAR1 thrombin receptor): 6.18; pIC50 [1]: 5.64; pIC50 [2]: 5.60
